Measurements reported in patent publication US20260078130A1, “NAMPT MODULATORS, PREPARATIONS, AND USES THEREOF” (SIRONAX LTD., priority 2022, published 2026).
Read-outs that look alike come from different tables or passages of the source.

How the values were obtained:
[1] = molecular target: T1, human enzyme NAMPT (full length) (Homo sapiens, UniProt P43490); test: NMN fluorescence biochemical assay (stimulation of NMN synthesis by NAMPT); conditions: for EC50: concentration giving half-maximal activation, read-out: Enzymatic EC50; for Enzymatic Emax: fold change of maximal activation compared to DMSO
T1 construct: human enzyme NAMPT (full length)
T1 sequence (P43490 whole entry): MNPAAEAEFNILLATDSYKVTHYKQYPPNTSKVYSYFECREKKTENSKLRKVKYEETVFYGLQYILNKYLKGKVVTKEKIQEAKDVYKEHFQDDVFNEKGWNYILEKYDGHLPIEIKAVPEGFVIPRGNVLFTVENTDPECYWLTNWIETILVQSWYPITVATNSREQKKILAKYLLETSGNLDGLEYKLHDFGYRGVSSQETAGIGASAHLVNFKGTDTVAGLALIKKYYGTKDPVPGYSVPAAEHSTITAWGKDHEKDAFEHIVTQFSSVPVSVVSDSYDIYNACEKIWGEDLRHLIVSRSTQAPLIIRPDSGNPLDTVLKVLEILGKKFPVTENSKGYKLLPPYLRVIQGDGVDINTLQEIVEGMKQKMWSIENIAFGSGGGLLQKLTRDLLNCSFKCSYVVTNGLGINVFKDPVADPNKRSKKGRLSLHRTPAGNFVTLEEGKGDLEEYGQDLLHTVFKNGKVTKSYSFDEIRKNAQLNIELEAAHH
Procedure, shortened: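 Full-length human NAMPT (100 nM) was preincubated 15 min at 37 °C with compound in 50 mM Tris-HCl pH 7.5, 10 mM MgCl2, 2 mM DTT, then reacted 1 h at 37 °C with 50 μM NAM, 100 μM PRPP, 4 mM ATP (stated solution concentrations). NMN was derivatised with acetophenone/KOH then formic acid and read at Ex/Em 382/445 nm; EC50 and Emax (fold over DMSO) reported.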

[2] = test system: endogenous NAMPT in U2OS cells; test: Cellular NAD+ modulation assay (NAD/NADH-Glo, U2OS cells); format: cell-based; conditions: Homo sapiens; for maximal fold induction: read-out: Cellular Emax
Procedure, shortened: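 Endogenous NAMPT stimulation in U2OS cells treated with compound dilution series for 24 h at 37 °C. Cells lysed with DTAB base, acid-treated 15 min at 60 °C, neutralized, NAD+ read by NAD/NADH-Glo luminescence after 40 min at room temperature. EC50 and Emax (fold over DMSO) derived.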

[3] = NMN synthesis by purified human NAMPT (100 nM)
[4] = 24 hours incubation with compound
[5] = NMN fluorescence assay, purified human NAMPT 100 nM
[6] = 24 hours incubation, cellular NAD+

Question: How did the EC50 [1, 3] turn out when `Cc1ccc2c(c1)C(=O)N(Cc1ccc3[nH]c(=O)oc3c1)C2=O` [Compound 297, 5-methyl-2-((2-oxo-2,3-dihydrobenzo[d]oxazol-6-yl)methyl)isoindoline-1,3-dione] was run?
Answer: 500 to 5000 nM

Question: And the “Enzymatic Emax” value [1]?
Answer: C (2≥C)

Question: And the EC50 [2, 4]?
Answer: 500 to 5000 nM

Question: And the maximal fold induction [2, 4]?
Answer: 1.2 to 1.5

Question: For `O=C1c2ccc(N3CCCC3)cc2CN1Cc1ccc(O)cc1` [Compound 298, 2-(4-hydroxybenzyl)-5-(pyrrolidin-1-yl)isoindolin-1-one], which EC50 [1, 3] is on record?
Answer: 500 to 5000 nM

Question: And the “Enzymatic Emax” value [1]?
Answer: C (2≥C)

Question: What about the EC50 [2, 4] of the same compound?
Answer: 500 to 5000 nM

Question: And the maximal fold induction [2, 4]?
Answer: 1.2 to 1.5

Question: Which results are given for `O=C1c2ccc(Br)cc2CN1Cc1ccc2[nH]c(=O)oc2c1` [Compound 299, 6-((5-bromo-1-oxoisoindolin-2-yl)methyl)benzo[d]oxazol-2(3H)-one]?
Answer: EC50 [1, 3]: 500 to 5000 nM; Enzymatic Emax [1]: C (2≥C); EC50 [2, 4]: 500 to 5000 nM; maximal fold induction [2, 4]: 1.2 to 1.5

Question: With `O=C1c2ccc(N3CCCC3)cc2CN1Cc1ccc2[nH]c(=O)oc2c1` [Compound 300, 6-((1-oxo-5-(pyrrolidin-1-yl)isoindolin-2-yl)methyl)benzo[d]oxazol-2(3H)-one] as the compound, how does the EC50 [1, 3] read?
Answer: ≥ 5000 nM

Question: And the “Enzymatic Emax” value [1]?
Answer: C (2≥C)

Question: What about the EC50 [2, 4] of the same compound?
Answer: 5000 to 50000 nM

Question: What about the maximal fold induction [2, 4] of the same compound?
Answer: 1.2 to 1.5

Question: With `Cn1c2ccccc2c(=O)n1Cc1ccc2[nH]nnc2c1` [Compound 301, 2-((1H-benzo[d][1,2,3]triazol-5-yl)methyl)-1-methyl-1,2-dihydro-3H-indazol-3-one] as the compound, how does the EC50 [1, 3] read?
Answer: ≥ 5000 nM

Question: And the “Enzymatic Emax” value [1]?
Answer: C (2≥C)

Question: What about the EC50 [2, 4] of the same compound?
Answer: 5000 to 50000 nM

Question: And the maximal fold induction [2, 4]?
Answer: 1.2 to 1.5

Question: How did the EC50 [1, 3] turn out when `Cn1ncc(Cl)c1CC1c2ccccc2C(=O)N1CC1CC2(CNC(=O)O2)C1` (centres unmarked) [Compound 307, 2-((1-((4-chloro-1-methyl-1H-pyrazol-5-yl)methyl)-3-oxoisoindolin-2-yl)methyl)-5-oxa-7-azaspiro[3.4]octan-6-one] was run?
Answer: 500 to 5000 nM

Question: What about the “Enzymatic Emax” value [1] of the same compound?
Answer: B (3≥B>2)

Question: What about the EC50 [2, 4] of the same compound?
Answer: < 500 nM

Question: What about the maximal fold induction [2, 4] of the same compound?
Answer: > 1.5

Question: What does the source list for `Cc1ccnc(C#N)c1CC1c2ccccc2C(=O)N1CC1CC2(CNC(=O)O2)C1` (centres unmarked) [Compound 308, 4-methyl-3-((3-oxo-2-((6-oxo-5-oxa-7-azaspiro[3.4]octan-2-yl)methyl)isoindolin-1-yl)methyl)picolinonitrile]?
Answer: EC50 [1, 3]: < 500 nM; Enzymatic Emax [1]: B (3≥B>2); EC50 [2, 4]: < 500 nM; maximal fold induction [2, 4]: > 1.5

Question: For `Cn1ncc(Cl)c1CC1c2cccc(F)c2C(=O)N1CC1CC2(CNC(=O)O2)C1` (centres unmarked) [Compound 309, 2-((1-((4-chloro-1-methyl-1H-pyrazol-5-yl)methyl)-4-fluoro-3-oxoisoindolin-2-yl)methyl)-5-oxa-7-azaspiro[3.4]octan-6-one], which EC50 [1, 3] is on record?
Answer: < 500 nM

Question: And the “Enzymatic Emax” value [1]?
Answer: B (3≥B>2)

Question: And the EC50 [2, 4]?
Answer: < 500 nM

Question: And the maximal fold induction [2, 4]?
Answer: > 1.5

Question: What does the source list for `Cn1ncc(Cl)c1CC1c2ccc(F)cc2C(=O)N1CC1CC2(CNC(=O)O2)C1` (centres unmarked) [Compound 310, 2-((1-((4-chloro-1-methyl-1H-pyrazol-5-yl)methyl)-5-fluoro-3-oxoisoindolin-2-yl)methyl)-5-oxa-7-azaspiro[3.4]octan-6-one]?
Answer: EC50 [1, 3]: 500 to 5000 nM; Enzymatic Emax [1]: B (3≥B>2); EC50 [2, 4]: < 500 nM; maximal fold induction [2, 4]: > 1.5

Question: How did the EC50 [1, 3] turn out when `Cn1ncc(Cl)c1CC1c2cc(C3CC3)ccc2C(=O)N1CC1CC2(CNC(=O)O2)C1` (centres unmarked) [Compound 311, 2-((3-((4-chloro-1-methyl-1H-pyrazol-5-yl)methyl)-5-cyclopropyl-1-oxoisoindolin-2-yl)methyl)-5-oxa-7-azaspiro[3.4]octan-6-one] was run?
Answer: 500 to 5000 nM

Question: What about the “Enzymatic Emax” value [1] of the same compound?
Answer: B (3≥B>2)

Question: What about the EC50 [2, 4] of the same compound?
Answer: < 500 nM

Question: What about the maximal fold induction [2, 4] of the same compound?
Answer: > 1.5

Question: What does the source list for `Cn1ncc(Cl)c1C[C@H]1c2ccccc2C(=O)N1C/C=C/c1c[nH]nn1` [Compound 312, (S,E)-2-(3-(1H-1,2,3-triazol-4-yl)allyl)-3-((4-chloro-1-methyl-1H-pyrazol-5-yl)methyl) isoindolin-1-one]?
Answer: EC50 [1, 3]: < 500 nM; Enzymatic Emax [1]: B (3≥B>2); EC50 [2, 4]: < 500 nM; maximal fold induction [2, 4]: > 1.5

Question: With `O=C1c2ccccc2C(Cc2ncccc2Br)N1C/C(F)=C/c1c[nH]nn1` (centres unmarked) [Compound 314, (Z)-3-((3-bromopyridin-2-yl)methyl)-2-(2-fluoro-3-(1H-1,2,3-triazol-4-yl)allyl)isoindolin-1-one] as the compound, how does the EC50 [1, 3] read?
Answer: < 500 nM

Question: What about the “Enzymatic Emax” value [1] of the same compound?
Answer: B (3≥B>2)

Question: What about the EC50 [2, 4] of the same compound?
Answer: < 500 nM

Question: What about the maximal fold induction [2, 4] of the same compound?
Answer: > 1.5

Question: `Cn1cnc(C#N)c1CC1c2ccccc2C(=O)N1Cc1ccc2[nH]nnc2c1` (centres unmarked) [Compound 315, 5-((2-((1H-benzo[d][1,2,3]triazol-5-yl)methyl)-3-oxoisoindolin-1-yl)methyl)-1-methyl-1H-imidazole-4-carbonitrile] was tested. Which EC50 [1, 3] did it give?
Answer: 500 to 5000 nM

Question: And the “Enzymatic Emax” value [1]?
Answer: A (A>3)

Question: What about the EC50 [2, 4] of the same compound?
Answer: 5000 to 50000 nM

Question: What about the maximal fold induction [2, 4] of the same compound?
Answer: 1.2 to 1.5

Question: Which results are given for `COc1nn(C)c(CC2c3ccccc3C(=O)N2Cc2ccc3[nH]nnc3c2)c1Cl` (centres unmarked) [Compound 316, 2-((1H-benzo[d][1,2,3]triazol-5-yl)methyl)-3-((4-chloro-3-methoxy-1-methyl-1H-pyrazol-5-yl)methyl)isoindolin-1-one]?
Answer: EC50 [1, 3]: < 500 nM; Enzymatic Emax [1]: B (3≥B>2); EC50 [2, 4]: < 500 nM; maximal fold induction [2, 4]: 1.2 to 1.5

Question: How did the EC50 [1, 3] turn out when `Cn1ncc(C#N)c1CC1c2ccccc2C(=O)N1Cc1ccc2[nH]nnc2c1` (centres unmarked) [Compound 317, 5-((2-((1H-benzo[d][1,2,3]triazol-5-yl)methyl)-3-oxoisoindolin-1-yl)methyl)-1-methyl-1H-pyrazole-4-carbonitrile] was run?
Answer: < 500 nM

Question: What about the “Enzymatic Emax” value [1] of the same compound?
Answer: C (2≥C)

Question: And the EC50 [2, 4]?
Answer: < 500 nM

Question: What about the maximal fold induction [2, 4] of the same compound?
Answer: 1.2 to 1.5

Question: How did the EC50 [1, 3] turn out when `O=C1c2ccccc2C(Cc2nn(C3COC3)cc2Cl)N1Cc1ccc2[nH]nnc2c1` (centres unmarked) [Compound 318, 2-((1H-benzo[d][1,2,3]triazol-5-yl)methyl)-3-((4-chloro-1-(oxetan-3-yl)-1H-pyrazol-3-yl)methyl)isoindolin-1-one] was run?
Answer: < 500 nM

Question: What about the “Enzymatic Emax” value [1] of the same compound?
Answer: A (A>3)

Question: What about the EC50 [2, 4] of the same compound?
Answer: < 500 nM

Question: What about the maximal fold induction [2, 4] of the same compound?
Answer: > 1.5

Question: How did the EC50 [1, 5] turn out when `O=C1c2ccccc2C(Cc2ncccc2Br)N1Cc1ccc(=O)[nH]c1` (centres unmarked) [Compound 322, 3-((3-bromopyridin-2-yl)methyl)-2-((6-oxo-1,6-dihydropyridin-3-yl)methyl)isoindolin-1-one] was run?
Answer: 500 to 5000 nM

Question: What about the “Enzymatic Emax” value [1] of the same compound?
Answer: A (A>3)

Question: What about the EC50 [2, 6] of the same compound?
Answer: 500 to 5000 nM

Question: What about the maximal fold induction [2, 6] of the same compound?
Answer: > 1.5

Question: `Cn1ncc(Cl)c1CC1c2cc(N3CCOCC3)ccc2C(=O)N1Cc1ccc2[nH]nnc2c1` (centres unmarked) [Compound 324, 2-((1H-benzo[d][1,2,3]triazol-5-yl)methyl)-3-((4-chloro-1-methyl-1H-pyrazol-5-yl)methyl)-5-morpholinoisoindolin-1-one] was tested. Which EC50 [1, 5] did it give?
Answer: < 500 nM

Question: And the “Enzymatic Emax” value [1]?
Answer: A (A>3)

Question: And the EC50 [2, 6]?
Answer: < 500 nM

Question: And the maximal fold induction [2, 6]?
Answer: > 1.5

Question: `Cn1ncc(Cl)c1CC1c2cc(CN3CCOCC3)ccc2C(=O)N1Cc1ccc2[nH]nnc2c1` (centres unmarked) [Compound 325, 2-((1H-benzo[d][1,2,3]triazol-5-yl)methyl)-3-((4-chloro-1-methyl-1H-pyrazol-5-yl)methyl)-5-(morpholinomethyl)isoindolin-1-one] was tested. Which EC50 [1, 5] did it give?
Answer: < 500 nM

Question: What about the “Enzymatic Emax” value [1] of the same compound?
Answer: A (A>3)

Question: And the EC50 [2, 6]?
Answer: < 500 nM

Question: What about the maximal fold induction [2, 6] of the same compound?
Answer: > 1.5

Question: With `Cn1ncc(Cl)c1CC1c2cc(Br)ccc2C(=O)N1Cc1ccc2[nH]nnc2c1` (centres unmarked) [Compound 326, 2-((1H-benzo[d][1,2,3]triazol-5-yl)methyl)-5-bromo-3-((4-chloro-1-methyl-1H-pyrazol-5-yl)methyl)isoindolin-1-one] as the compound, how does the EC50 [1, 5] read?
Answer: < 500 nM

Question: And the “Enzymatic Emax” value [1]?
Answer: A (A>3)

Question: What about the EC50 [2, 6] of the same compound?
Answer: < 500 nM

Question: What about the maximal fold induction [2, 6] of the same compound?
Answer: > 1.5
